Data from patent publication US8293916B2, “Diazole derivatives” (Hoffmann-La Roche Inc., priority 2004, dated 2012).
Like-named read-outs stand apart in the source and are kept apart here.

Molecular target: T1, human mGlu 5a receptor (Homo sapiens, UniProt P41594)
T1 construct: expressed in transfected cells; host or cells: EBNA cells (transient transfection); cell membrane homogenates
Test: [3H]MPEP competition binding on membranes of EBNA cells transiently transfected with human mGlu 5a receptor
Procedure: Cell membrane homogenates were stored at −80° C. until the day of assay where upon they were thawed and resuspended and polytronised in 15 mM Tris-HCl, 120 mM NaCl, 100 mM KCl, 25 mM CaCl2, 25 mM MgCl2 binding buffer at pH 7.4 to a final assay concentration of 20 μg protein/well.
Competition experiments were performed with a fixed concentration of [^3H]MPEP (2 nM) and IC50 values of test compounds evaluated using 11 concentrations (0.3-10,000 nM).
Nonspecific binding was measured in the presence of 10 μM MPEP. The radioactivity on the filter was counted (3 min) on a Packard Top-count microplate scintillation counter with quenching correction after addition of 45 μl of microscint 40 (Canberra Packard S.A., Zürich, Switzerland) and shaking for 20 min.
The Ki value is defined by the following formula: Ki=IC50/[1+L/Kd] in which the IC50 values are those concentrations of the compounds tested which cause 50% inhibition of the competing radioligand ([^3H]MPEP). L is the concentration of radioligand used in the binding experiment and the Kd value of the radioligand is empirically determined for each batch of membranes prepared.

[1] = competition with [3H]MPEP (2 nM), 1 h at 4° C., pH 7.4, Ki=IC50/[1+L/Kd]

T1 sequence (P41594 21-1180 isoform P41594-2 limits assumed): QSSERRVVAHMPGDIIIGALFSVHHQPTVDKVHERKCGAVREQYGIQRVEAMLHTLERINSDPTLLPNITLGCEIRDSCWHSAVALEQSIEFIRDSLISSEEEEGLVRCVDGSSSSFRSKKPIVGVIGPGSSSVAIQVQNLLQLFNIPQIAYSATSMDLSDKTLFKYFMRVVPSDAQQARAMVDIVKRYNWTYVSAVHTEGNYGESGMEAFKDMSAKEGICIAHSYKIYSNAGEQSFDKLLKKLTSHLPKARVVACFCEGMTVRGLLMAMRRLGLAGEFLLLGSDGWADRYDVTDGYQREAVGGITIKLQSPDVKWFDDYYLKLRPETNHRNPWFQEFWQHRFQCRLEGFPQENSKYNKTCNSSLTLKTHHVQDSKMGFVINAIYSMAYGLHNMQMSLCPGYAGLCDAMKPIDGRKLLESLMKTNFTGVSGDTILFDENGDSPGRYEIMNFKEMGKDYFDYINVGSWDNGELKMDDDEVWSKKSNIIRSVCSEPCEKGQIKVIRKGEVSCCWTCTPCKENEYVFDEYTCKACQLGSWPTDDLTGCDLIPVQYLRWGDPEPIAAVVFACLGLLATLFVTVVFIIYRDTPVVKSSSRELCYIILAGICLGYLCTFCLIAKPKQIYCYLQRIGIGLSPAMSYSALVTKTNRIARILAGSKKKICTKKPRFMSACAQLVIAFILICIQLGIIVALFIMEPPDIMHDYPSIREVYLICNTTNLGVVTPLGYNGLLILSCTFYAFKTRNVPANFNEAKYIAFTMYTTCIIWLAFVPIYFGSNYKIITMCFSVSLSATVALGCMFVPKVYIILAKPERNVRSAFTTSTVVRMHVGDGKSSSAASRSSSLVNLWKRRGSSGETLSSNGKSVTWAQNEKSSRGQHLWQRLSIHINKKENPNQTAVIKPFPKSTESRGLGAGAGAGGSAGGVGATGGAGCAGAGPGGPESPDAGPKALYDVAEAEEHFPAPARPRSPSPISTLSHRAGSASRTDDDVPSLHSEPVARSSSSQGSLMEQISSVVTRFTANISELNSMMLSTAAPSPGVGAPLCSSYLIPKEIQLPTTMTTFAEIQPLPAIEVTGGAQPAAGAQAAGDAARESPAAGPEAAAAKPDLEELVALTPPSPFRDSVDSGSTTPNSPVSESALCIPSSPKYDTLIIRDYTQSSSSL

## Cc1nc(C#Cc2ccnc(Cl)c2)c(C)n1-c1ccc(C(F)(F)F)cc1 [Example 13, 2-Chloro-4-[2,5-dimethyl-1-(4-trifluoromethyl-phenyl)-1H-imidazol-4-ylethynyl]-pyridine]
  Ki: 14 nM

## Cc1c(C#Cc2ccnc(Cl)c2)nn(C)c1-c1ccc(F)cc1 [Example 26, 2-Chloro-4-[5-(4-fluoro-phenyl)-1,4-dimethyl-1H-pyrazol-3-ylethynyl]-pyridine]
[1]
  Ki: 6 nM

## Cc1nc(C#Cc2ccnc(Cl)c2)c(C(F)F)n1-c1ccc(F)cc1 [Example 27, 2-Chloro-4-[5-difluoromethyl-1-(4-fluoro-phenyl)-2-methyl-1H-imidazol-4-ylethynyl]-pyridine]
[1]
  Ki: 42 nM
